Reference: PubChem BioAssay (NCI)
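Tested at 5 concentrations; 48 h exposure; 96-well plates; endpoints linearly interpolated, else capped at highest concentration. At the GI50, growth is halved. TGI marks complete inhibition of growth.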

Key:
Test in all cases: inhibition of tumour cell growth, NCI panel, 48 h
786-0 renal = system: 786-0 renal
A498 renal = system: A498 renal
A549 NSCLC = system: A549 NSCLC
ACHN renal = system: ACHN renal
BT-549 breast = system: BT-549 breast
CAKI-1 renal = system: CAKI-1 renal
CCRF-CEM leukemia = system: CCRF-CEM leukemia
COLO 205 colon = system: COLO 205 colon
DU-145 prostate = system: DU-145 prostate
EKVX NSCLC = system: EKVX NSCLC
HCC-2998 colon = system: HCC-2998 colon
HCT-116 colon = system: HCT-116 colon
HCT-15 colon = system: HCT-15 colon
HL-60(TB) leukemia = system: HL-60(TB) leukemia
HOP-62 NSCLC = system: HOP-62 NSCLC
HOP-92 NSCLC = system: HOP-92 NSCLC
HS 578T breast = system: HS 578T breast
HT29 colon = system: HT29 colon
IGROV1 ovarian = system: IGROV1 ovarian
K-562 leukemia = system: K-562 leukemia
KM12 colon = system: KM12 colon
LOX IMVI melanoma = system: LOX IMVI melanoma
M14 melanoma = system: M14 melanoma
MALME-3M melanoma = system: MALME-3M melanoma
MCF7 breast = system: MCF7 breast
MDA-MB-231 breast = system: MDA-MB-231 breast
MDA-MB-435 = system: MDA-MB-435
MDA-MB-468 breast = system: MDA-MB-468 breast
MOLT-4 leukemia = system: MOLT-4 leukemia
NCI-H226 lung = system: NCI-H226 lung
NCI-H23 lung = system: NCI-H23 lung
NCI-H460 lung = system: NCI-H460 lung
NCI-H522 lung = system: NCI-H522 lung
NCI/ADR-RES ovarian = system: NCI/ADR-RES ovarian
OVCAR-3 ovarian = system: OVCAR-3 ovarian
OVCAR-4 ovarian = system: OVCAR-4 ovarian
OVCAR-5 ovarian = system: OVCAR-5 ovarian
OVCAR-8 ovarian = system: OVCAR-8 ovarian
PC-3 prostate = system: PC-3 prostate
RPMI-8226 leukemia = system: RPMI-8226 leukemia
RXF 393 renal = system: RXF 393 renal
SF-268 CNS = system: SF-268 CNS
SF-295 CNS = system: SF-295 CNS
SF-539 CNS = system: SF-539 CNS
SK-MEL-2 melanoma = system: SK-MEL-2 melanoma
SK-MEL-28 melanoma = system: SK-MEL-28 melanoma
SK-MEL-5 melanoma = system: SK-MEL-5 melanoma
SK-OV-3 ovarian = system: SK-OV-3 ovarian
SN12C renal = system: SN12C renal
SNB-19 CNS = system: SNB-19 CNS
SNB-75 CNS = system: SNB-75 CNS
SR leukemia = system: SR leukemia
SW-620 colon = system: SW-620 colon
T-47D breast = system: T-47D breast
TK-10 renal = system: TK-10 renal
U251 CNS = system: U251 CNS
UACC-257 melanoma = system: UACC-257 melanoma
UACC-62 melanoma = system: UACC-62 melanoma
UO-31 renal = system: UO-31 renal

`COc1ccc(NC(=O)Cn2c(/C=C/c3cccc(Br)c3)nc3ccccc3c2=O)cc1` was tested, and the GI50 (786-0 renal) was 4.9 µM, the TGI (786-0 renal) was 14.8 µM and the GI50 (A498 renal) was 9.71 µM. The TGI (A498 renal) was 32.5 µM, the GI50 (A549 NSCLC) was 11.4 µM and the TGI (A549 NSCLC) was over 36 µM. It also gave a GI50 (ACHN renal) of 1.75 µM, a TGI (ACHN renal) of 12.2 µM and a GI50 (BT-549 breast) of 3.62 µM. The TGI (BT-549 breast) was over 36 µM, the GI50 (CAKI-1 renal) was 14 µM and the TGI (CAKI-1 renal) was over 36 µM. The GI50 (CCRF-CEM leukemia) was over 36 µM, the TGI (CCRF-CEM leukemia) was over 36 µM and the GI50 (COLO 205 colon) was over 36 µM. The TGI (COLO 205 colon) was over 36 µM, the GI50 (DU-145 prostate) was 13.5 µM and the TGI (DU-145 prostate) was over 36 µM. For the same compound, the GI50 (EKVX NSCLC) was over 36 µM, the TGI (EKVX NSCLC) was over 36 µM and the GI50 (HCC-2998 colon) was over 36 µM. The TGI (HCC-2998 colon) was over 36 µM, the GI50 (HCT-116 colon) was 5.67 µM and the TGI (HCT-116 colon) was over 36 µM. For the same compound, the GI50 (HCT-15 colon) was over 36 µM, the TGI (HCT-15 colon) was over 36 µM and the GI50 (HL-60(TB) leukemia) was over 36 µM. The TGI (HL-60(TB) leukemia) was over 36 µM, the GI50 (HOP-62 NSCLC) was 6.47 µM and the TGI (HOP-62 NSCLC) was 21 µM. The GI50 (HOP-92 NSCLC) was 8.66 µM, the TGI (HOP-92 NSCLC) was 32.6 µM and the GI50 (HS 578T breast) was 2.73 µM. The TGI (HS 578T breast) was 30.8 µM, the GI50 (HT29 colon) was over 36 µM and the TGI (HT29 colon) was over 36 µM. The GI50 (IGROV1 ovarian) was over 36 µM, the TGI (IGROV1 ovarian) was over 36 µM and the GI50 (K-562 leukemia) was over 36 µM. It also gave a TGI (K-562 leukemia) of over 36 µM, a GI50 (KM12 colon) of over 36 µM and a TGI (KM12 colon) of over 36 µM. It also gave a GI50 (LOX IMVI melanoma) of 3.02 µM, a TGI (LOX IMVI melanoma) of over 36 µM and a GI50 (M14 melanoma) of 31.8 µM. For the same compound, the TGI (M14 melanoma) was over 36 µM, the GI50 (MALME-3M melanoma) was 6.56 µM and the TGI (MALME-3M melanoma) was 27 µM. For the same compound, the GI50 (MCF7 breast) was 8.56 µM, the TGI (MCF7 breast) was over 36 µM and the GI50 (MDA-MB-231 breast) was 1.93 µM. For the same compound, the TGI (MDA-MB-231 breast) was 8.8 µM, the GI50 (MDA-MB-435) was over 36 µM and the TGI (MDA-MB-435) was over 36 µM. For the same compound, the GI50 (MDA-MB-468 breast) was 6.25 µM, the TGI (MDA-MB-468 breast) was over 36 µM and the GI50 (MOLT-4 leukemia) was over 36 µM. The TGI (MOLT-4 leukemia) was over 36 µM, the GI50 (NCI-H226 lung) was 1.69 µM and the TGI (NCI-H226 lung) was 9.64 µM. It also gave a GI50 (NCI-H23 lung) of 10.5 µM, a TGI (NCI-H23 lung) of over 36 µM and a GI50 (NCI-H460 lung) of 15.7 µM. It also gave a TGI (NCI-H460 lung) of over 36 µM, a GI50 (NCI-H522 lung) of 17.6 µM and a TGI (NCI-H522 lung) of over 36 µM. It also gave a GI50 (NCI/ADR-RES ovarian) of 7.1 µM, a TGI (NCI/ADR-RES ovarian) of over 36 µM and a GI50 (OVCAR-3 ovarian) of 10.6 µM. For the same compound, the TGI (OVCAR-3 ovarian) was over 36 µM, the GI50 (OVCAR-4 ovarian) was 2.17 µM and the TGI (OVCAR-4 ovarian) was 9.94 µM. The GI50 (OVCAR-5 ovarian) was 15.6 µM, the TGI (OVCAR-5 ovarian) was over 36 µM and the GI50 (OVCAR-8 ovarian) was 10.5 µM. The TGI (OVCAR-8 ovarian) was over 36 µM, the GI50 (PC-3 prostate) was over 36 µM and the TGI (PC-3 prostate) was over 36 µM. For the same compound, the GI50 (RPMI-8226 leukemia) was over 36 µM, the TGI (RPMI-8226 leukemia) was over 36 µM and the GI50 (RXF 393 renal) was 4.39 µM. The TGI (RXF 393 renal) was 17.6 µM, the GI50 (SF-268 CNS) was 13.9 µM and the TGI (SF-268 CNS) was over 36 µM. For the same compound, the GI50 (SF-295 CNS) was 6.79 µM, the TGI (SF-295 CNS) was over 36 µM and the GI50 (SF-539 CNS) was 2.94 µM. It also gave a TGI (SF-539 CNS) of 8.06 µM, a GI50 (SK-MEL-2 melanoma) of over 36 µM and a TGI (SK-MEL-2 melanoma) of over 36 µM. For the same compound, the GI50 (SK-MEL-28 melanoma) was over 36 µM, the TGI (SK-MEL-28 melanoma) was over 36 µM and the GI50 (SK-MEL-5 melanoma) was over 36 µM. It also gave a TGI (SK-MEL-5 melanoma) of over 36 µM, a GI50 (SK-OV-3 ovarian) of 7.25 µM and a TGI (SK-OV-3 ovarian) of 27.5 µM. The GI50 (SN12C renal) was 14.8 µM, the TGI (SN12C renal) was over 36 µM and the GI50 (SNB-19 CNS) was 11.4 µM. For the same compound, the TGI (SNB-19 CNS) was over 36 µM, the GI50 (SNB-75 CNS) was 0.801 µM and the TGI (SNB-75 CNS) was 3.27 µM. The GI50 (SR leukemia) was 1.06 µM, the TGI (SR leukemia) was over 36 µM and the GI50 (SW-620 colon) was over 36 µM. It also gave a TGI (SW-620 colon) of over 36 µM, a GI50 (T-47D breast) of over 36 µM and a TGI (T-47D breast) of over 36 µM. For the same compound, the GI50 (TK-10 renal) was 5.4 µM, the TGI (TK-10 renal) was 13.4 µM and the GI50 (U251 CNS) was 4.68 µM. For the same compound, the TGI (U251 CNS) was 13.5 µM, the GI50 (UACC-257 melanoma) was over 36 µM and the TGI (UACC-257 melanoma) was over 36 µM. For the same compound, the GI50 (UACC-62 melanoma) was over 36 µM, the TGI (UACC-62 melanoma) was over 36 µM and the GI50 (UO-31 renal) was 4.41 µM. It also gave a TGI (UO-31 renal) of 15.4 µM.
